What was measured:
[1] = test system: porcine smooth muscle cell cultures; assay: Thymidine incorporation (proliferation) in porcine smooth muscle cell cultures; format: cell-based; settings: for IC50: Sus scrofa, amount of incorporated thymidine, concentrations 0.003-156 micromolar, FIGS. 20A-B, read-out: IC50 (concentration at which 50% of the cells are prevented from proliferating)
Protocol: In order to assess the effect of therapeutic capable agents of the present invention on cell cultures, samples of 5 sets of therapeutic capable agents, as listed below, in varying concentrations were prepared and added to different groups of porcine smooth muscle cell cultures according to standard procedures. Set A, B, C, D, and E corresponded to therapeutic capable agent sets: Mycophenolic acid & Dexamethasone; Mycophenolic acid & Triptolide; Wortmannin and Methotrexate; Triptolide; Mycophenolate Mofetil; respectively. The amount of incorporated thymidine for the different samples of varying concentrations (0.003, 0.031, 0.31, 1.6, and 3.1 micromolar) was measured.
In another group of therapeutic capable agents, the amount of incorporated thymidine for samples of varying concentrations (0.003, 0.031, 0.31, 1.6, 3.1, 31, and 156 micromolar) was measured.

[2] = Half life of mycophenolic acid bound to BSA (MPA-BSA), assayed by liquid chromatography; format: in vitro ADME
Text: The MPA-BSA has an increases half time (as measured by assaying methods such as liquid chromotography) as compared to mycophenolic acid alone and as shown in the table below: […]

Question: Which Cell death (cell cultures) does the source give for `C[C@@H]1C[C@H]2[C@@H]3CCC4=CC(=O)C=C[C@]4(C)[C@@]3(F)[C@@H](O)C[C@]2(C)[C@@]1(O)C(=O)CO` [Dexamethasone] here?
Answer: did not lead to significant cell death

Question: With `CN(Cc1cnc2nc(N)nc(N)c2n1)c1ccc(C(=O)N[C@@H](CCC(=O)O)C(=O)O)cc1` [Methotrexate] as the compound, how does the Cell death (cell cultures) read?
Answer: did not lead to significant cell death

Question: For `C[C@H]1C[C@@H]2[C@H]([C@@H](O)C[C@@]3(C)[C@H]2CC[C@]3(O)C(=O)CO)[C@@]2(C)C=CC(=O)C=C12` [Methylprednisolone, methylprednisolone], which IC50 [1] is on record?
Answer: 1000 nM

Question: Which “Effectiveness on cell proliferation (incorporated thymidine)” value ([1]; porcine smooth muscle cell cultures, 0.003-3.1 micromolar, FIG. 19E) does the source give for `COc1c(C)c2c(c(O)c1C/C=C(\C)CCC(=O)OCCN1CCOCC1)C(=O)OC2` [Mycophenolate Mofetil] here?
Answer: may not be as effective in the absence of a bio-condition

Question: With `COc1c(C)c2c(c(O)c1C/C=C(\C)CCC(=O)O)C(=O)OC2` [Mycophenolic acid, mycophenolic acid] as the compound, how does the Cell death (cell cultures) read?
Answer: did not lead to significant cell death

Question: What about the IC50 [1] of the same compound?
Answer: 1000 nM

Question: For `CC(C)[C@]12O[C@H]1[C@@H]1O[C@]13[C@]1(O[C@H]1C[C@H]1C4=C(CC[C@@]13C)C(=O)OC4)[C@@H]2O` [Triptolide], which Cell death (cell cultures) is on record?
Answer: did not lead to significant cell death

Question: With “MPA-BSA: mycophenolic acid (MPA) bound to Bovine Serum Albumin disposed adjacent the rate-controlling element, forming a complex” as the compound, how does the “Half Life (T)” value ([2]; Blood or Tissue BSA Concentration 1%) read?
Answer: 1.27 h

Question: What about the “Half Life (T)” value ([2]; Blood or Tissue BSA Concentration 2%) of the same compound?
Answer: 2.02 h

Question: What about the “Half Life (T)” value ([2]; Blood or Tissue BSA Concentration 4%) of the same compound?
Answer: 6.07 h

Question: And the “Half Life (T)” value ([2]; Blood or Tissue BSA Concentration 6%)?
Answer: 32.07 h

Question: What about the “Stability of the complex compared to mycophenolic acid alone” value ([2]; metabolism to glucuronide derivative) of the same compound?
Answer: more stable than mycophenolic acid alone
